Source: the Deep4Chem optical property database
One block for each molecule: values may come before it.

Assay: solvent given as SMILES

Structure (SMILES): CN(C)c1ccc(/C=C/c2cc[n+](CCCCC[n+]3ccc(/C=C/c4ccc(N(C)C)cc4)cc3)cc2)cc1
emission maximum (in CC1COC(=O)O1): 603 nm
emission maximum (in CC#N): 605 nm
emission maximum (in CC(C)=O): 604 nm
emission maximum (in CC(C)O): 593 nm
emission maximum (in CCO): 598 nm
emission maximum (in CN(C)C=O): 607 nm
emission maximum (in CO): 600 nm
emission maximum (in CS(C)=O): 610 nm
emission maximum (in ClC(Cl)Cl): 574 nm
emission maximum (in O): 597 nm
emission maximum (in c1ccncc1): 596 nm

Structure (SMILES): CC(C)(C)c1ccc2c(c1)c1cc(C(C)(C)C)ccc1n2-c1ccc(C#Cc2ccc(C#Cc3ccc(-n4c5ccc(C(C)(C)C)cc5c5cc(C(C)(C)C)ccc54)cc3)cc2)cc1
emission maximum (in CC#N): 470 nm
emission maximum (in CCCCC): 385 nm
emission maximum (in CO): 453 nm
emission maximum (in Cc1ccccc1): 400 nm
emission maximum (in ClC(Cl)Cl): 419 nm
emission maximum (in ClCCl): 437 nm

Structure (SMILES): COc1ccc(-c2nc(C)cc(-c3ccc(-n4c5ccccc5c5ccccc54)cc3)n2)cc1
emission maximum (in C1CCOC1): 418 nm
emission maximum (in CN(C)C=O): 453 nm
emission maximum (in Cc1ccccc1): 390 nm
emission maximum (in ClC(Cl)Cl): 421 nm

Structure (SMILES): Cc1cc(C)c([B-]2(c3c(C)cc(C)cc3C)[O+]=P(c3ccccc3)(c3ccccc3)c3ccsc3-c3sccc32)c(C)c1
emission maximum (in C1CCOC1): 429 nm

Structure (SMILES): CN1c2ccccc2CCc2ccccc21
emission maximum (in CC#N): 346 nm
emission maximum (in CO): 348 nm

Structure (SMILES): F[B-]1(F)OC(c2ccc(C(F)(F)F)cc2)=Cc2cc(Cl)nc[n+]21
emission maximum (in C1CCOC1): 428 nm
emission maximum (in CC#N): 425 nm
emission maximum (in CCCCCC): 421 nm
emission maximum (in Cc1ccccc1): 434 nm
emission maximum (in ClC(Cl)Cl): 426 nm
emission maximum (in ClCCl): 426 nm

Structure (SMILES): Cc1ccc(N(c2ccc(C)cc2)c2ccc(-c3ccc(-c4ccc(N(c5ccc(C)cc5)c5ccc(C)cc5)cc4)c4nsnc34)cc2)cc1
emission maximum (in Cc1ccccc1): 628 nm
emission maximum (in ClCCl): 609 nm

Structure (SMILES): N#Cc1c(-n2c3ccccc3c3cc(Br)ccc32)c(C#N)c(-n2c3ccccc3c3cc(Br)ccc32)c(-n2c3ccccc3c3cc(Br)ccc32)c1-n1c2ccccc2c2cc(Br)ccc21
emission maximum (in Cc1ccccc1): 515 nm

Structure (SMILES): N#CC1=c2c3cccc4cccc(c43)n2[B-](F)(F)[n+]2ccccc21
emission maximum (in C1CCOC1): 530 nm
emission maximum (in CC#N): 527 nm
emission maximum (in CCCCCC): 530 nm
emission maximum (in Cc1ccccc1): 535 nm
emission maximum (in ClCCl): 530 nm

Structure (SMILES): Cc1cc(-c2ccc(C(C)(C)C)cc2)cc(C)[o+]1
emission maximum (in CC#N): 430 nm
emission maximum (in ClCCl): 417 nm

Structure (SMILES): COc1cc2c(cc1-c1ccc(N(c3ccccc3)c3ccccc3)cc1)Cc1c3c(c4c(c1-2)-c1cc(OC)c(-c2ccc(N(c5ccccc5)c5ccccc5)cc2)cc1C4)C(=O)N(CCC(C)C)C3=O
emission maximum (in C1CCOC1): 563 nm

Structure (SMILES): CCCCN1C(=O)c2cc(Oc3ccc(C(C)(C)C)cc3)c3c4c(Oc5ccc(C(C)(C)C)cc5)c(Oc5ccc(C(C)(C)C)cc5)c5c6c(cc(Oc7ccc(C(C)(C)C)cc7)c(c7c(Oc8ccc(C(C)(C)C)cc8)c(Oc8ccc(C(C)(C)C)cc8)c(c2c37)C1=O)c64)C(=O)N(CCCC)C5=O
emission maximum (in ClC(Cl)Cl): 610 nm

Structure (SMILES): c1ccc(-c2ccc3c(c2)c2cc(-c4ccccc4)ccc2n3-c2ccc3c(c2)c2cc(-n4c5ccc(-c6ccccc6)cc5c5cc(-c6ccccc6)ccc54)ccc2n3-c2ccc(-c3nc(-c4ccccc4)nc(-c4ccccc4)n3)cc2)cc1
emission maximum (in Cc1ccccc1): 457 nm
emission maximum (in O=P(c1ccccc1)(c1ccccc1)c1ccccc1Oc1ccccc1P(=O)(c1ccccc1)c1ccccc1): 480 nm

Structure (SMILES): Cn1c(=O)c(/N=N/c2ccc(Nc3ccc([N+](=O)[O-])cc3S(=O)(=O)O)cc2)c(O)c2ccccc21
emission maximum (in C1CCOC1): 615 nm
emission maximum (in CC(C)=O): 617 nm
emission maximum (in CCOC(C)=O): 610 nm
emission maximum (in CO): 619 nm
emission maximum (in CS(C)=O): 622 nm
emission maximum (in Cc1ccccc1): 605 nm
emission maximum (in ClCCl): 617 nm
emission maximum (in O): 636 nm

Structure (SMILES): COc1ccc(-c2nc3c([nH]2)=C2C=C(Cl)S[C@@]2(C)[C@]2(C)SC(Cl)=CC=32)cc1
emission maximum (in CC#N): 378 nm

Structure (SMILES): Cc1ccc(-c2c3nc(c(-c4ccc(C)cc4)c4ccc([nH]4)c(-c4ccc(OC(=O)C(C)c5ccc(-c6ccccc6)c(F)c5)cc4)c4nc(c(-c5ccc(C)cc5)c5ccc2[nH]5)C=C4)C=C3)cc1 (stereo not drawn)
emission maximum (in ClCCl): 653 nm

Structure (SMILES): COC(=O)c1cc(=O)n(C)c2cc(-c3cccc(OC)c3)sc12
emission maximum (in CC#N): 463 nm
emission maximum (in ClCCl): 464 nm

Other lines, results leading:

emission maximum (in ClC(Cl)Cl): 588 nm
Structure (SMILES): F[B-]1(F)n2c(ccc2-c2ccccc2)C(c2ccc(I)cc2)=C2C=CC(c3ccccc3)=[N+]21

emission maximum (in C1COCCO1): 580 nm
emission maximum (in CC(C)O): 607 nm
emission maximum (in CCCCCCCCO): 595 nm
emission maximum (in CCCCO): 608 nm
emission maximum (in CCCO): 611 nm
emission maximum (in CCO): 613 nm
emission maximum (in CO): 618 nm
emission maximum (in CS(C)=O): 627 nm
emission maximum (in ClC(Cl)Cl): 580 nm
emission maximum (in ClCCl): 600 nm
Structure (SMILES): CN(C)c1ccc(/C=C/c2cc[n+](Cc3cc(C[n+]4ccc(/C=C/c5ccc(N(C)C)cc5)cc4)cc(C[n+]4ccc(/C=C/c5ccc(N(C)C)cc5)cc4)c3)cc2)cc1

emission maximum (in CC#N): 424 nm
Structure (SMILES): CCCCCCCCCC[n+]1cc2ccc3c[n+](CCCCCCCCCC)cc4ccc(c1)c2c34

emission maximum (in ClCCl): 490 nm
Structure (SMILES): CN(C)c1cccc(/C=C/c2ncc(-c3ccc(OCc4ccccc4)c(OCc4ccccc4)c3)o2)c1

emission maximum (in c1ccccc1): 434 nm
Structure (SMILES): CON(C)C(=O)c1ccc(/C=C/c2ccc(/C=C/c3ccc(C(=O)N(C)OC)cc3)cc2)cc1

emission maximum (in CC#N): 451 nm
emission maximum (in CO): 449 nm
emission maximum (in O): 453 nm
Structure (SMILES): CN(C)CCCN1c2ccccc2Sc2ccc(Cl)cc21

emission maximum (in O): 397 nm
Structure (SMILES): CCCCn1c(-c2ccc(-c3ccc(-c4ccc(-c5n(CCCC)c6ccccc6[n+]5CCCC)cc4)cc3)cc2)[n+](CCCC)c2ccccc21

emission maximum (in ClC(Cl)Cl): 708 nm
Structure (SMILES): CCCCOC(=O)/C(C#N)=C1\C(=CC2=[N+](C)c3ccccc3C2(C)C)C([O-])=C1C=C1N(C)c2ccccc2C1(C)C

emission maximum (in CC#N): 408 nm
Structure (SMILES): Cc1c2ccc3c(C)[n+](C)ccc3c2cc[n+]1C

emission maximum (in ClCCl): 415 nm
Structure (SMILES): COc1ccc2c(c1)c1cc(OC)ccc1c1c2ccc2cccc(C(=O)NC(C)(C)C)c21

emission maximum (in C1CCCCC1): 431 nm
Structure (SMILES): Cc1cc(C)c(B2c3cc(C(C)(C)C)ccc3-c3cccc4cc(C(C)(C)C)cc2c34)c(C)c1

emission maximum (in CC1CCCO1): 348 nm
Structure (SMILES): c1ccc2c(c1)-c1ccccc1C21c2ccccc2-c2ccncc21

emission maximum (in C1CCCCC1): 503 nm
emission maximum (in C1CCOC1): 540 nm
emission maximum (in CC#N): 570 nm
emission maximum (in CS(C)=O): 580 nm
emission maximum (in ClCCl): 545 nm
Structure (SMILES): CN(C)c1ccc(/C=C/c2nc(/C=C/c3ccc(N(C)C)cc3)c3ccccc3n2)cc1

emission maximum (in ClCCl): 371 nm
Structure (SMILES): Cc1cc2c3ccccc3[nH]c2c2[nH]c3ccccc3c12

emission maximum (in C1CCCCC1): 540 nm
emission maximum (in CC#N): 546 nm
emission maximum (in CCO): 547 nm
emission maximum (in CCOC(C)=O): 543 nm
emission maximum (in CO): 546.5 nm
emission maximum (in OCC(F)(F)F): 538.5 nm
Structure (SMILES): Cc1ccc(C2=C3C=C(I)C=[N+]3[B-](F)(F)n3cccc32)cc1

emission maximum (in ClC(Cl)Cl): 660 nm
Structure (SMILES): CCCCCCCCCCCCOc1cc2c3cc(OCCCCCCCCCCCC)c(OCCCCCCCCCCCC)cc3c3c(cc(OCCCCCCCCCCCC)c4nc5cc(C#Cc6ccc(OCCC(C)CCCC(C)C)cc6)c(C#Cc6ccc(OCCC(C)CCCC(C)C)cc6)cc5nc43)c2cc1OCCCCCCCCCCCC (stereo not drawn)

emission maximum (in C1CCOC1): 446 nm
Structure (SMILES): O=c1oc2cccc3c4cccc5ccc6c7ccccc7c1c(c23)c6c54
